Data reported in patent publication US6194217A, “Method of diagnosing or categorizing disorders from biochemical profiles” (ESA, Inc., priority 1993, dated 2001).
Like-named read-outs stand apart in the source and are kept apart here. Each block holds one molecule with its values, some of them ahead of it.

Tests used:
[1] = Stability in perchloric acid extracts of nasal secretions over 24 hours at room temperature; format: physicochemical
From the text: (§1) Two characteristics make nasal secretions attractive for neurochemical analysis. The secretions are close to the site or origin of the compounds being measured and they are in a strong reducing environment. Oxidation potential measurements of saline suspensions of nasal secretions with platinum vs. Ag/Ag/cl yield values from -0.230 to -0.300 mV compared to lumbar CSF values of -0.050 to -0.170. The reducing character of the tissue is consistent with observation of a large number of easily oxidized peaks on the lower channels of the chromatographic pattern. The reducing character of the sample makes it highly attractive for clinical use because of the stability inferred for the target compounds. Indeed preliminary studies indicate no change in 5-hydroxyindoleacetic acid or homovanillic acid over 24 hours in perchloric acid extracts at room temperature. From the number of peaks in the 35-50 min region, the nasal mucosa also appear to be a stable matrix for small peptides, including fragments of β-amyloid peptide.
Swabs were extracted by cutting the tip and placing it in 300 μl of 0.1 M HClO4, they ere vortexed for 1 min. centrifuged and then reextracted in another 300 μl of 0.1 M HClO4. […] Following centrifugation the pellets are combined, and can be extracted with 40:60 acetonitrilehexane for analysis of ubiquinones and larger peptides.

[2] = Incubation of β-amyloid in saline suspensions of nasal mucosa, development of electroactive peaks; format: in vitro ADME; settings: over 6 hours, FIG. 7
From the text: as §1

- change over 24 hours (stability) [1]: no change
Molecule: O=C(O)Cc1c[nH]c2ccc(O)cc12 [5-hydroxyindoleacetic acid]

Molecule: COc1cc(CC(=O)O)ccc1O [homovanillic acid]
- change over 24 hours (stability) ([1]; 24 hours, perchloric acid extracts, room temperature, preliminary studies): no change

Molecule: β-amyloid
- development of electroactive peaks [2]: development over 6 hours of electroactive peaks
- electroactive peaks which corresponded to original peaks in the suspension [2]: five
